Data from PMC5492033, “The N-Terminal Region of the Ryanodine Receptor Affects Channel Activation” (Frontiers in Physiology, 2017).
Read-outs that look alike come from different tables or passages of the source. No end group written: not given here.

How the values were obtained:
RyR2 = tested on: RyR2; parameters: method as in 2 sources, one per row (each row's own in cited_ref): ref Zahradnikova and Zahradnik, 1993 ||| ref Faltinova and Zahradnikova, 2013; details: ref Zahradnikova and Zahradnik, 1993; cited from earlier work
RyR2 channel = target: T1, RyR2 channel (Rattus norvegicus, UniProt B0LPN4); assay: Single RyR2 channel measurements in planar lipid bilayers; assay type: biochemical; details: for EC50: 50% of maximum increase of open probability; for Kd: PO at 0.5–2 μM peptide, cytosolic Ca2+ 100 nM, read-out: Kp, dissociation constant of DPcpvtN2; for POmax, maximum open probability: PO0 0.0039
T1 construct: RyR2 channels were incorporated from a suspension of microsomal vesicles of the SR; from tissue; host or cells: rat (Wistar Han) heart ventricles, cardiac SR microsomes
Method: All experimental protocols were approved by the State veterinary and food administration of the Slovak Republic (Ro-3820/05-221, Ro-2821/09-221) and by the ethical committee of the Centre of Biosciences. All methods were carried out in accordance with the European directive 2010/63/EU. Male rats (Wistar Han, 240–310 g, breeding station Dobra Voda, reg. No. SK CH 24011, Slovak Republic) were anesthetized with sodium pentobarbital (50 mg kg^−1 i.p.), the hearts were excised, and cardiac SR microsomes were isolated from rat heart ventricles by differential centrifugation without further purification steps, as previously described (Gaburjakova and Gaburjakova, [2006]; Faltinova and Zahradnikova, [2013]), snap frozen in liquid nitrogen and stored at −70°C.
Preparation of bilayers, incorporation of channels and electrophysiological measurements were performed as previously described (Faltinova and Zahradnikova, [2013]). In brief, bilayer lipid membranes were formed over a 20–50 μm aperture in a polystyrene chamber. The aperture was first treated with a solution (26 mg/ml) of DOPS, DOPC and DPPC (3:5:5) in N-decane (Aldrich, USA). After evaporation of N-decane, the cis and trans compartments of the bilayer chamber were filled with the solutions (in mmol/l): cis, 250 HEPES, 50 KCl, 1 EGTA, 125 TRIS, 0.5 CaCl2, pH 7.35, [Ca^2+] = 90 nM; trans, 30 HEPES, 50 KCl, 1 Ca(OH)2, 7 Ba(OH)2, pH 7.35, and the bilayer was formed using a mixture of DOPS and DOPE (3:10; 26 mg/ml in N-decane). After formation of a bilayer, RyR2 channels were incorporated from a suspension of microsomal vesicles of the SR, added to the cis compartment. RyR identity was checked at the beginning of the experiment at high Ca^2+, when it was characteristic by its single-channel amplitude and open duration (Tencerova et al., [2012]; Faltinova and Zahradnikova, [2013]). Under the above ionic conditions, no other channels have similar properties. Detection of RyR channel was followed by perfusion to a basal Ca^2+ level. The identity of RyR was occasionally further tested at the end of the experiment by addition of 100 μM Ca^2+.
Currents through the incorporated single RyR2 channels were measured in voltage-clamp mode at 0 mV with MultiClamp 700B amplifier (Molecular Devices, USA) with a 50 GΩ feed-back resistor. The signal was filtered by a 4-pole Bessel filter at 1 kHz and digitized using an A/D converter (Digidata 1440A, Molecular Devices, USA) at a frequency of 4 kHz. Acquisition and analysis were performed using pClamp software (Ver. 10, Molecular Devices, USA) and Origin Pro (Ver. 9, OriginLab Corporation, USA).
Equilibrium open probabilities for different gating models (Equations 1–3) were determined from the gating schemes. Equations were derived using Mathematica (Ver. 10, Wolfram Research, USA) as previously described (Zahradnik et al., [2005]). The value of EC50 was calculated in Mathematica from Equations (1) to (3) as the ligand concentration, at which the increase of open probability reached 50% of maximum increase.

[1] = CD spectroscopy (secondary structure); assay type: physicochemical
Method: Circular dichroism (CD) measurements were performed using a Jasco J-810 spectropolarimeter (Japan). CD measurements were performed in the 198–250 nm wavelength range, which enabled estimation of the secondary structure of the peptide. The DPcpvtN2 peptide was dissolved either in 2 mM Na-phosphate (pH 7.0) or in 99.8% ethanol to a final concentration of 1.5–7 μM. CD spectra were expressed as averages of 3–5 consecutive scans. 1 mm cuvette was used for measurements. Typically, a time constant of 2 s, bandwidth of 2.0 nm, scanning speed 200 nm/min and the standard sensitivity were used. The spectra were analyzed using the web server CAPITO (Wiedemann et al., [2013]), which provides the percentage of α-helical, β-sheet and random coil in the secondary structure.

T1 sequence (B0LPN4 whole entry): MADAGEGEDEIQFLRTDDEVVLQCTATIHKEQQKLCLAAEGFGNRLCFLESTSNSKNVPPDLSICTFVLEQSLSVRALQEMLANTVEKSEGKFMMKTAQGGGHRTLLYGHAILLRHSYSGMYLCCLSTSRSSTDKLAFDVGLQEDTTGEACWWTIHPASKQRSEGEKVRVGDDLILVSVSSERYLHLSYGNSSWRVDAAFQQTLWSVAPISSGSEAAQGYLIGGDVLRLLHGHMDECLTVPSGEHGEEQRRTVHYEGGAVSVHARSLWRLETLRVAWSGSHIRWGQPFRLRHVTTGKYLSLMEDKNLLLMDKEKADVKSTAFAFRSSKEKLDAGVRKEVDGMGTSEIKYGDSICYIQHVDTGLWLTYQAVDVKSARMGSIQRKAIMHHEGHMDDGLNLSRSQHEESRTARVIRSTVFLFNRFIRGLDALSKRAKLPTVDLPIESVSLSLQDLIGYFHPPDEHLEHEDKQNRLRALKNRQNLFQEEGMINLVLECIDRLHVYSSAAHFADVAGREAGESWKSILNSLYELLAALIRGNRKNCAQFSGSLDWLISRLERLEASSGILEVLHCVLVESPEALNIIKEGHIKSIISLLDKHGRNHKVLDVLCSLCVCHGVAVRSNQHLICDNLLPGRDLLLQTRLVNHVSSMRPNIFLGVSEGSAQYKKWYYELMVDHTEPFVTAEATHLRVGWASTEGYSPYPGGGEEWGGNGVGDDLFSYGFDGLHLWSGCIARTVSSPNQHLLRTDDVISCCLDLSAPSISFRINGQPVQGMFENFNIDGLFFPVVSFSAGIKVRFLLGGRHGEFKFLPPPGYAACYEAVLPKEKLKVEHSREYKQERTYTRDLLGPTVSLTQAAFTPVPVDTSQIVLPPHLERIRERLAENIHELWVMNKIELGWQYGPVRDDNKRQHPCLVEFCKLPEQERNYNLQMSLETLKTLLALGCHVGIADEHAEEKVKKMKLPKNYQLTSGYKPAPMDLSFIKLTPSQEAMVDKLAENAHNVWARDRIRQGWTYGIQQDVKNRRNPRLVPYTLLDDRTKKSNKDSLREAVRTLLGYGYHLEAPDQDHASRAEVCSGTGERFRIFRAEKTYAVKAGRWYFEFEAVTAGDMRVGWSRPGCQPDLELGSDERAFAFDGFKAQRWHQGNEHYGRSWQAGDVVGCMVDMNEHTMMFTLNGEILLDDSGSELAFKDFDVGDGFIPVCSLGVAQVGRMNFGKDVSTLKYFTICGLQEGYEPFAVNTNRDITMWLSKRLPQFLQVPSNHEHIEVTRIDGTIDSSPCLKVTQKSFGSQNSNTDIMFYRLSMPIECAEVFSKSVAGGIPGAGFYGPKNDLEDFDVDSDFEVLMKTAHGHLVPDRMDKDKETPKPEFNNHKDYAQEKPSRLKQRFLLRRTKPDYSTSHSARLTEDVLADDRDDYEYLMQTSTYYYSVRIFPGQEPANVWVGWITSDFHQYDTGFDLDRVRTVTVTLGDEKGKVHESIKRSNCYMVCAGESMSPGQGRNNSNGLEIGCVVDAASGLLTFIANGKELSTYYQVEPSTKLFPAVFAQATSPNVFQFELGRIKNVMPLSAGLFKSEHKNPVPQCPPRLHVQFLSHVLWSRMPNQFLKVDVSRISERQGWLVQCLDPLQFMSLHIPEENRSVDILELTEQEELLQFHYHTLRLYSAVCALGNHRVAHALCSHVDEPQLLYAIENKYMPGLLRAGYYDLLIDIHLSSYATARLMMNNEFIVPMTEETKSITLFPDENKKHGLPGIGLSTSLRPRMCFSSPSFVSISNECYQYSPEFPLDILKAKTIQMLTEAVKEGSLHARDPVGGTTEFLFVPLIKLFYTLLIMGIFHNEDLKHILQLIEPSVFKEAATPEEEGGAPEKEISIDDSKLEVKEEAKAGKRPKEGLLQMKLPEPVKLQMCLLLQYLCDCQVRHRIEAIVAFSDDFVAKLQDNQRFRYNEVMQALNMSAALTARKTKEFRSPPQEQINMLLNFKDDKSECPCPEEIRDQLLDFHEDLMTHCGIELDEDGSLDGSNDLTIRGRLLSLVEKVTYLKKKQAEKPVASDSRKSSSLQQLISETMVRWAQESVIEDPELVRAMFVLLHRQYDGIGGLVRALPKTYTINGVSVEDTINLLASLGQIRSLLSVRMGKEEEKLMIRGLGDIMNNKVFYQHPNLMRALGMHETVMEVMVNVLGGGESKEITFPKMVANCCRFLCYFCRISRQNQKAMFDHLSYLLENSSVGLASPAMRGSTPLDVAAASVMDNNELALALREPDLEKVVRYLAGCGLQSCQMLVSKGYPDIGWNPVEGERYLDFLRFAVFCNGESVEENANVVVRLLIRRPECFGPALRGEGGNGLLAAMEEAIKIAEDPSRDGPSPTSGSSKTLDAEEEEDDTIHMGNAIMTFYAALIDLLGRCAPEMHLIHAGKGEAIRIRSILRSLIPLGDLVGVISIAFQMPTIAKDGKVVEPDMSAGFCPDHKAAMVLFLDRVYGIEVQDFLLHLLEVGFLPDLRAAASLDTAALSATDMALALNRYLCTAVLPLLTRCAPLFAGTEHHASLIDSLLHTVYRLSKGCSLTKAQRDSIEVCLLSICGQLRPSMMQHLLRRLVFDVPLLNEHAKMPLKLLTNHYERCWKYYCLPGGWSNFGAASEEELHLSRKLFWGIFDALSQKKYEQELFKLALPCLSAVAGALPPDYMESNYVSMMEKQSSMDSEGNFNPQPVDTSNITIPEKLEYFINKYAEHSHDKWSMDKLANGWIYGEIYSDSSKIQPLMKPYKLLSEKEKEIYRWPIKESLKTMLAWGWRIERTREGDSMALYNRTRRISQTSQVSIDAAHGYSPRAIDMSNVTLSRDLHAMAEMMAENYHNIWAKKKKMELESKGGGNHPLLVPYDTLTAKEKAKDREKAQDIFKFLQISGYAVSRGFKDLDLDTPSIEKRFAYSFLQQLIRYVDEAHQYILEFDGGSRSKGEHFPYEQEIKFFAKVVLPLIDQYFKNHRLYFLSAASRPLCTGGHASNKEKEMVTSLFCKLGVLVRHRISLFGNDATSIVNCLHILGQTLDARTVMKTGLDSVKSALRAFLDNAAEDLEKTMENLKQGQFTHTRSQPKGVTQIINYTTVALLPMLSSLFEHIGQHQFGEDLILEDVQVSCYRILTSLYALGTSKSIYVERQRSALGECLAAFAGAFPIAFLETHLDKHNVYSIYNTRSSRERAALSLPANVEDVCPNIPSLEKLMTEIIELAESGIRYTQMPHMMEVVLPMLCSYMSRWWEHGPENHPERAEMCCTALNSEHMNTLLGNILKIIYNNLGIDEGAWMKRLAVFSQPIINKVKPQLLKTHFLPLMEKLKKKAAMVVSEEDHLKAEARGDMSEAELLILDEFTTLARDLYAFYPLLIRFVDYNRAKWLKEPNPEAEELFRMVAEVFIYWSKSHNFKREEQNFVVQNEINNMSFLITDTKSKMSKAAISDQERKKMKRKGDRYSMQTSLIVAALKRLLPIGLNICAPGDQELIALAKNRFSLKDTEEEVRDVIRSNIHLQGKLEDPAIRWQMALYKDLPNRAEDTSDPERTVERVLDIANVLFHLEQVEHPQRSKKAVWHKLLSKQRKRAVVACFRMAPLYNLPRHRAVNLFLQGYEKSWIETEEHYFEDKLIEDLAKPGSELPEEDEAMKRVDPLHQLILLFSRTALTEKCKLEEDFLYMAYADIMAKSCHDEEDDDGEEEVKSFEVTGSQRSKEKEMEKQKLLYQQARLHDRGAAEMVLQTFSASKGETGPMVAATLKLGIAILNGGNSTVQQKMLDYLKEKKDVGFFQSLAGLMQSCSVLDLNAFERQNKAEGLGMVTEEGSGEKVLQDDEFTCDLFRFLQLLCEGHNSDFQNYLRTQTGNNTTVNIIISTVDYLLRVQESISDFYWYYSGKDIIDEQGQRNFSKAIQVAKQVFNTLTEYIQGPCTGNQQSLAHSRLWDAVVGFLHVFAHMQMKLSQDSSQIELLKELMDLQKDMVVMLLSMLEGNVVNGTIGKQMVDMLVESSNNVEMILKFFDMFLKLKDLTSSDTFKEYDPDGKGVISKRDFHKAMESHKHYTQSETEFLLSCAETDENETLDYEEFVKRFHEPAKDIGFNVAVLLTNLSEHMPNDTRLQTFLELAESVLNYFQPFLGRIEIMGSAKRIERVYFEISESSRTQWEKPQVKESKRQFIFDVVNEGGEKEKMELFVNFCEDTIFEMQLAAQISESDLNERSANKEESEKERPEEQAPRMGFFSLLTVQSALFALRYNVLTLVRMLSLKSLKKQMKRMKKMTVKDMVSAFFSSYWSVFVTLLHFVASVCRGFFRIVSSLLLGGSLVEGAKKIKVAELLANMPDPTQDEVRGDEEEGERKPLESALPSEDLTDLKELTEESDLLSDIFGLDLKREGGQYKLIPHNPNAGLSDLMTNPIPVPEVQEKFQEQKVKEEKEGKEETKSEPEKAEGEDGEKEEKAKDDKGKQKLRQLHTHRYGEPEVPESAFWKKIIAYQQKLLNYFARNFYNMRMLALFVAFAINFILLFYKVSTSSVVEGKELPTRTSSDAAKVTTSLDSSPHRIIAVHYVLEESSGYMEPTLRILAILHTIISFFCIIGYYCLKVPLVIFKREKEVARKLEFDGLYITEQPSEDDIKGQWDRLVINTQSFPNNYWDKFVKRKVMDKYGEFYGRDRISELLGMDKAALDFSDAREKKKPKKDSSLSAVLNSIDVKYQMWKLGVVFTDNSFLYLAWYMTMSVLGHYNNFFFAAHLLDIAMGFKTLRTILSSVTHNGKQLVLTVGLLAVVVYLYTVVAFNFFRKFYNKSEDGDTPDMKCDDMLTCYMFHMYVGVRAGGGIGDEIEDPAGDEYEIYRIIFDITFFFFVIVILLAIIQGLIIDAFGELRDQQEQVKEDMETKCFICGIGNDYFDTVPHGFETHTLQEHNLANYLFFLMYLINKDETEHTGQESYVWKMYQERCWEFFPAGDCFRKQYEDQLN

O=S(=O)(O)c1cc(N=C=S)ccc1C=Cc1ccc(N=C=S)cc1S(=O)(=O)O [DIDS]
Effect on RyR2 activity (RyR2): all-or-none

HEESRTARVIRSTVFLFBRFIRGLDALSK (HEESRTARVIRSTVFLFXRFIRGLDALSK; not fully specified) [DPcpvtN2, domain peptide containing amino acids 410–438 of human RyR2, the central helix of the N-terminal region]
EC50 (RyR2 channel; calculated from Equation (1), gating scheme GS1): 66.4 µM | EC50 (RyR2 channel; calculated from Equation (2), gating scheme GS2): 17.6 µM | EC50 (RyR2 channel; calculated from Equation (3), gating scheme GS3): 0.41 µM | Kd (RyR2 channel; fit by gating scheme GS1 (Equation 1: one peptide bound opens channel), 0 mV, n = 9 channels): 351 ± 99 µM | Kd (RyR2 channel; fit by gating scheme GS2 (Equation 2: four peptides bound open channel; fit rejected), 0 mV, n = 9 channels): 3.35 ± 0.56 µM

HEESRTARVIRSTVFLFBRFIRGLDALSK [DPcpvtN2, domain peptide containing amino acids 410–438 of human RyR2, the central helix of the N-terminal region]
Effect on RyR2 open probability (RyR2 channel; 0.5–2 μM, cis side, diastolic conditions (100 nM cytosolic Ca2+, 1 mM luminal Ca2+, 0 mV), 2-min recording, n = 9 channels): Increase in open probability and the presence of long openings could be observed at all DPcpvtN2 concentrations | Time to occurrence of long openings after addition (RyR2 channel; 0.5–2 μM, diastolic conditions, 0 mV): ≤ 1 min | Open time (tO) of long openings (RyR2 channel; 0.5–2 μM, diastolic conditions, 0 mV, control openings tO ~ 15 ms): > 100 ms | fp, allosteric factor (RyR2 channel; fit by gating scheme GS3 (Equation 3), couples DPcpvtN2 binding to channel opening): 0.61 ± 0.10 | POmax, maximum open probability (RyR2 channel; gating scheme GS1): 1 | POmax, maximum open probability (RyR2 channel; gating scheme GS2): 1 | POmax, maximum open probability (RyR2 channel; gating scheme GS3): 0.0275 | Reversibility of the interaction between channel and peptide (RyR2 channel; inferred from concentration dependence of RyR open probability): readily reversible | Ellipticity in ethanol compared with aqueous solution ([1]; 1.5–3 μM, ethanol vs. phosphate buffer pH 7.0): an order of magnitude higher | Content of α-helix ([1]; CD spectra, 1.5–3 μM in phosphate buffer pH 7.0 or ethanol (solvent of the estimate not specified), CAPITO web server): 99%
